The record followed here is ChEMBL document CHEMBL4680379, “Structure-based Discovery of Cell-Potent Peptidomimetic Inhibitors for Protein N-Terminal Methyltransferase 1” (ACS Med Chem Lett, 2021).

pIC50: −log10 of the molar value. Calls of active or inactive are those of the source. The calls are words filed in the database; no cut-off is given here.

For data set [1], the target named is T1, N-terminal Xaa-Pro-Lys N-methyltransferase 1 (Homo sapiens, UniProt Q9BV86).
T1 sequence (Q9BV86 whole entry): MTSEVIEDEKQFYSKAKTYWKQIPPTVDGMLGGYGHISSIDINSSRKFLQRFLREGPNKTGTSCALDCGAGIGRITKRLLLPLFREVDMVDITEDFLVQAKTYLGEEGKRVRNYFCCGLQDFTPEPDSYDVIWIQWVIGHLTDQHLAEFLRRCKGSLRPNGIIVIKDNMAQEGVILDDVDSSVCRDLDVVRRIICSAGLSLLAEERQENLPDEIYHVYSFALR
The data set is described as follows: Inhibition of recombinant human N-terminal His6-tagged NTMT1 (1 to 222 residues) expressed in Escherichia coli BL21-CodonPlus(DE3)-RIL using GPKRIA peptide and SAM as substrate pre-incubated for 10 mins in presence of SAM followed by substrate addition by SAHH coupled fluorescence assay.

Another data set concerns the target Trypsin (Homo sapiens, UniProt P07477+P07478+P35030). The data set is described as follows: Stability of compound assessed as trypsin (unknown origin) mediated compound hydrolysis at 10 uM incubated for 1 hr by MALDI-MS analysis. The format is ADME, protein assay.
Data set [2] addresses T2, N-terminal Xaa-Pro-Lys N-methyltransferase 1 (Homo sapiens) (UniProt Q9BV86).
T2 sequence (whole entry): T1 sequence (Q9BV86 whole entry)
The data set is described as follows: Inhibition of NTMT1 in human HCT116 cells assessed as decrease in me3-SPK level at 100 uM incubated for 3 days by Western blot analysis relative to control. The format is cell-based. The conditions noted are these: HCT-116, time 3.0 day.

For data set [3], the target named is T2, N-terminal Xaa-Pro-Lys N-methyltransferase 1 (Homo sapiens). Description: Inhibition of NTMT1 in human HCT116 cells assessed as decrease in me3-SPK level at 1 mM incubated for 3 days by Western blot analysis relative to control. The format is cell-based. The conditions noted are these: HCT-116, time 3.0 day.
Data set [4] has the same target. The data set is described as follows: Inhibition of NTMT1 in human HCT116 cells assessed as decrease in me3-SPK level at 300 uM incubated for 3 days by Western blot analysis relative to control. It counts as cell-based. The note with it: HCT-116, time 3.0 day.
Data set [5] is described as follows: Selectivity for recombinant human N-terminal His6-tagged NTMT1 (1 to 222 residues) expressed in Escherichia coli BL21-CodonPlus(DE3)-RIL over Trypanosoma brucei N-terminal His6-tagged PRMT7 expressed in Escherichia coli BL21-CodonPlus(DE3)-RIL.
The target of data set [6] is T2, N-terminal Xaa-Pro-Lys N-methyltransferase 1 (Homo sapiens). The data set is described as follows: Non-competitive inhibition of recombinant human N-terminal His6-tagged NTMT1 (1 to 222 residues) expressed in Escherichia coli BL21-CodonPlus(DE3)-RIL using GPKRIA peptide and varying concentration of SAM as substrate pre-incubated for 10 mins in presence of SAM followed by fixed concentration of substrate addition and measured for 15 mins by SAHH coupled fluorescence assay. The conditions noted are these: time 25.0 min.

The species entered for data set [7] is Homo sapiens. Description: Selectivity for recombinant human N-terminal His6-tagged NTMT1 (1 to 222 residues) expressed in Escherichia coli BL21-CodonPlus(DE3)-RIL over human His-tagged G9a (913 to 1193 residues) expressed in Escherichia coli BL21-CodonPlus(DE3)-RIL.
The subject of a further data set is Trypanosoma brucei. Description: Inhibition of Trypanosoma brucei N-terminal His6-tagged PRMT7 expressed in Escherichia coli BL21-CodonPlus(DE3)-RIL at 100 uM using H4-21 peptide as substrate preincubated for 10 mins in presence of SAM followed by substrate addition by SAHH-coupled fluorescence assay relative to control.
The species named for data set [8] is Homo sapiens. The data set is described as follows: Selectivity for recombinant human N-terminal His6-tagged NTMT1 (1 to 222 residues) expressed in Escherichia coli BL21-CodonPlus(DE3)-RIL over PRMT3 (unknown origin).
For data set [9], the target named is T1, N-terminal Xaa-Pro-Lys N-methyltransferase 1. The data set is described as follows: Inhibition of NTMT1 in human HCT116 cells assessed as decrease in me3-SPK level incubated for 3 days by Western blot analysis. It counts as cell-based, HCT-116.
Data set [10] addresses T3, Histone-lysine N-methyltransferase SETD7 (Homo sapiens) (UniProt Q8WTS6).
T3 sequence (whole entry): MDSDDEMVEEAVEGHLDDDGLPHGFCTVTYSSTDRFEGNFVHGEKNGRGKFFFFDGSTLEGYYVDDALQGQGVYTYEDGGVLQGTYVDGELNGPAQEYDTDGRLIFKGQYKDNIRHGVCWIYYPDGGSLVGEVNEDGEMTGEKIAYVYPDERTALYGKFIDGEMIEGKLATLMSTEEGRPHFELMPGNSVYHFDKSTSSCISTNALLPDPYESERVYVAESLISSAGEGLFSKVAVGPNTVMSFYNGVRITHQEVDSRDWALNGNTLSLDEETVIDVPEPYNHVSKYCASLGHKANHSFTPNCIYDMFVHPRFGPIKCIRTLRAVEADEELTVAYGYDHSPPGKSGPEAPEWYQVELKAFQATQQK
Description: Inhibition of His-tagged SETD7 (unknown origin) at 100 uM using H3-21 peptide as substrate preincubated for 10 mins in presence of SAM followed by substrate addition by SAHH-coupled fluorescence assay relative to control.

For data set [11], the species on record is Homo sapiens. Description: Selectivity for recombinant human N-terminal His6-tagged NTMT1 (1 to 222 residues) expressed in Escherichia coli BL21-CodonPlus(DE3)-RIL over PRMT1 (unknown origin).
The species entered for data set [12] is Homo sapiens. Description: Selectivity for recombinant human N-terminal His6-tagged NTMT1 (1 to 222 residues) expressed in Escherichia coli BL21-CodonPlus(DE3)-RIL over His-tagged SETD7 (unknown origin).
In data set [13] the target is T4, Histone-lysine N-methyltransferase EHMT2 (Homo sapiens) (UniProt Q96KQ7).
T4 sequence (whole entry): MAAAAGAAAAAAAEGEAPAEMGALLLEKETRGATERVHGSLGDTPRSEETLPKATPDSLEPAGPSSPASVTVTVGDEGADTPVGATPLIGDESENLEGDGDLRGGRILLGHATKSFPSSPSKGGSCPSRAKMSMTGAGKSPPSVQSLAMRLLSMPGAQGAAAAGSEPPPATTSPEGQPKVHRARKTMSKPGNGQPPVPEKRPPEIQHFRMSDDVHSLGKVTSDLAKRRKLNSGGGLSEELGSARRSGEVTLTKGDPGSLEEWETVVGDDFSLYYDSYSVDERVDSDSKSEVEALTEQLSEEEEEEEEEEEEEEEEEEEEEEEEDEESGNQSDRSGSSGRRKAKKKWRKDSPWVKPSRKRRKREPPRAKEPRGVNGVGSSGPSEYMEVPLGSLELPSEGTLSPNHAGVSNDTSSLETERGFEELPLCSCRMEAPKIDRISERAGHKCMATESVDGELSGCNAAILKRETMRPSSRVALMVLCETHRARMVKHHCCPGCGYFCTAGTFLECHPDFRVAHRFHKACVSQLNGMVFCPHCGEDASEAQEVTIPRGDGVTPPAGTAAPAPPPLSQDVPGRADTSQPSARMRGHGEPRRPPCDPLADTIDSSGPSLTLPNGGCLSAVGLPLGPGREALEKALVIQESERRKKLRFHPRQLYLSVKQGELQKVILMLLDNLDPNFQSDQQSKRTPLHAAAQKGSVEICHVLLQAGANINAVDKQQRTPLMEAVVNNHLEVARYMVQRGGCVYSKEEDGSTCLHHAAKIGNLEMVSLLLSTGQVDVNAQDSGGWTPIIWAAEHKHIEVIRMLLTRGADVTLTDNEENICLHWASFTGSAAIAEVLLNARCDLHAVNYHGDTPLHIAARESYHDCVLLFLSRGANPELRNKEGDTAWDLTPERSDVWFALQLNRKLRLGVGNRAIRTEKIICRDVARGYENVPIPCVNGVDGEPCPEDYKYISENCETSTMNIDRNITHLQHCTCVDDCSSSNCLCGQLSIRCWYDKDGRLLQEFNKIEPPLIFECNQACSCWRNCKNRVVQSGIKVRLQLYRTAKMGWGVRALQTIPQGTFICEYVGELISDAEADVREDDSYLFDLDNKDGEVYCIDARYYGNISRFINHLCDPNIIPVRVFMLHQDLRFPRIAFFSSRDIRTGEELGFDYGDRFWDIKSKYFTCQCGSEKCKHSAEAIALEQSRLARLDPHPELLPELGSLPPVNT
Description: Inhibition of human His-tagged G9a (913 to 1193 residues) expressed in Escherichia coli BL21-CodonPlus(DE3)-RIL at 100 uM using H3-21 peptide as substrate preincubated for 10 mins in presence of SAM followed by substrate addition by SAHH-coupled fluorescence assay relative to control.

Data set [14] concerns the target Adenosylhomocysteinase (Homo sapiens) (UniProt P23526). The data set is described as follows: Inhibition of SAHH (unknown origin) at 100 uM relative to control.
The species named for data set [15] is Homo sapiens. Description: Selectivity for recombinant human N-terminal His6-tagged NTMT1 (1 to 222 residues) expressed in Escherichia coli BL21-CodonPlus(DE3)-RIL over SAHH (unknown origin).
Data set [16] deals with Protein arginine N-methyltransferase 1 (Homo sapiens) (UniProt Q99873). Description: Inhibition of PRMT1 (unknown origin) at 100 uM using H4-21 peptide as substrate preincubated for 10 mins in presence of SAM followed by substrate addition by SAHH-coupled fluorescence assay relative to control.
Protein arginine N-methyltransferase 1 (Homo sapiens), sequence (Q99873 whole entry, looked up): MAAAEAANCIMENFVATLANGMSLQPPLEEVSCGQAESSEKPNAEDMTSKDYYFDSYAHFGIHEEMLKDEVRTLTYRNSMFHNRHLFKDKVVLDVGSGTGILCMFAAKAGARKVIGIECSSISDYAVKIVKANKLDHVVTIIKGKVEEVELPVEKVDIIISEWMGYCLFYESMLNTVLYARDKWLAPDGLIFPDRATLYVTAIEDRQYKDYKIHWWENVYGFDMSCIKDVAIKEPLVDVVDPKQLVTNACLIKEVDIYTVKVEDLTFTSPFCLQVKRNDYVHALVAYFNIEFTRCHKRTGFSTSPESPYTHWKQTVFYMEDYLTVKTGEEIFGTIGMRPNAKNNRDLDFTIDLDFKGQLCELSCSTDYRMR
Data set [17] deals with Protein arginine N-methyltransferase 3 (Homo sapiens) (UniProt O60678). Description: Inhibition of PRMT3 (unknown origin) at 100 uM relative to control.
Protein arginine N-methyltransferase 3 (Homo sapiens), sequence (O60678 2-531 limits assumed): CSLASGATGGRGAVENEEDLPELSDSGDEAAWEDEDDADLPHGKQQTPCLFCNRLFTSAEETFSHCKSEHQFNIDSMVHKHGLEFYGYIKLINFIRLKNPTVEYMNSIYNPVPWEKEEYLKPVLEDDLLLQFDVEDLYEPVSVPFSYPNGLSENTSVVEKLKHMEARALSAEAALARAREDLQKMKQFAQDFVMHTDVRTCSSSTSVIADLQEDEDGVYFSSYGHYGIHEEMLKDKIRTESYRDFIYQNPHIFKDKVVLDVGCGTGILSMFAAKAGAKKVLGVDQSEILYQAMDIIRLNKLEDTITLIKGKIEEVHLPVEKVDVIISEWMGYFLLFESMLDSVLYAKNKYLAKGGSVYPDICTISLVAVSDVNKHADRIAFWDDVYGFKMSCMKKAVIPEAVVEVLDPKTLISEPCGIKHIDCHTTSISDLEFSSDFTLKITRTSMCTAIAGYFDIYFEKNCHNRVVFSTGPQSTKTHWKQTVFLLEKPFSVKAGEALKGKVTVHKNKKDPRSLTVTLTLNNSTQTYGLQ

Adenosylhomocysteinase (Homo sapiens), sequence (P23526 2-432 limits assumed): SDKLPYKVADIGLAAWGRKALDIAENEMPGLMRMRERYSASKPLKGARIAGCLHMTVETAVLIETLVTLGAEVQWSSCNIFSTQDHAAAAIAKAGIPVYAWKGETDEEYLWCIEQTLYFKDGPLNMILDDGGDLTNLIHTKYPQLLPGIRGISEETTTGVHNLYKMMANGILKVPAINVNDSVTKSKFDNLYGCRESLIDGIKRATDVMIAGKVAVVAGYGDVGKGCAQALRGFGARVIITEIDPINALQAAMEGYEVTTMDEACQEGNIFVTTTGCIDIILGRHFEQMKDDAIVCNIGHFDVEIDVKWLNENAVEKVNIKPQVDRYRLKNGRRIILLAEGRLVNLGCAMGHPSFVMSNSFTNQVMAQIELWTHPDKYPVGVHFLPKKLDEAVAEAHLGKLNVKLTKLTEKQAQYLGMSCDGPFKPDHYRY

For the compound `N=C(N)NCCC[C@H](NC(=O)[C@H](CCCCN)NC(=O)[C@@H]1CCCN1C(=O)Cc1cccc2ncccc12)C(N)=O`, the pIC50 in data set [1] was below 4.00.
`CN(C(=O)[C@H](CCCCN)NC(=O)[C@@H]1CCCN1C(=O)Cc1cccc2ccccc12)[C@@H](CCCNC(=N)N)C(N)=O`: the Stabilty result on Trypsin is “Stable”.
Regarding `NCCCC[C@H](NC(=O)[C@@H]1CCCN1C(=O)Cc1cccc2ccccc12)C(=O)Nc1ccccc1`, the inhibition came out at 0% in [2], 79% in data set [3] and 55% in data set [4]. Moreover, the negative-log IC50 (pIC50) in data set [1] was 5.96.
The matching figures for `NCCCC[C@H](NC(=O)[C@@H]1CCCN1C(=O)Cc1cccc2ccccc12)C(=O)Nc1cccc(C(N)=O)c1`: 10%, 90%, 57% and 6.89.
The matching figures for `NCCCC[C@H](NC(=O)[C@@H]1CCCN1C(=O)Cc1cccc2ccccc12)C(=O)Nc1cccc2ccccc12`: 0%, 47%, 1% and 6.01.
As to `N=C(N)NCCC[C@H](NC(=O)[C@H](CCCCN)NC(=O)[C@@H]1CCCN1C(=O)Cc1cccc2ccccc12)C(N)=O`, the Selectivity ratio (in data set [5]; in the data set filed under Homo sapiens [7]; in the data set listed under Homo sapiens [8]; in the data set filed under Homo sapiens [11]; in the data set listed under Homo sapiens [12]; in the data set filed under Homo sapiens [15]) was above 1000 in each case. Moreover, the inhibition entry in data set [6] was “Active”. For the same compound, the inhibition in the data set with Trypanosoma brucei is below 50%; in data set [2] it was 3%; in data set [10] it was below 50%; in [3] it was 52%; in data set [4], 10%; in [13], below 50%. In addition, the inhibition in [14], in data set [16] and in [17] was below 50% throughout. Besides, the pIC50 in [9] is 3.00; in [1] it was 7.00. At Trypsin, the Stabilty entry was “Unstable”.
As for `NCCCC[C@H](NC(=O)[C@@H]1CCCN1C(=O)Cc1cccc2ccccc12)C(=O)N[C@@H](CCC(=O)O)C(N)=O`, the pIC50 in data set [1] is 5.38.
Take `C[C@@H](C(N)=O)N(C)C(=O)[C@H](CCCCN)NC(=O)[C@@H]1CCCN1C(=O)Cc1cccc2ccccc12`: the inhibition was 0% in [2], 70% in data set [3] and 3% in [4]. Also, the Stabilty result on Trypsin is “Stable”. Moreover, in data set [1], the pIC50 was 6.24.
The matching figures for `CN(C(=O)[C@H](CCCCN)NC(=O)[C@@H]1CCCN1C(=O)Cc1cccc2ccccc12)[C@@H](CCCCN)C(N)=O`: 0%, 100%, 48%, “Stable” and 6.33.
